Values joined by “and” are separate entries in the source; they are usually repeats but may differ in a detail not shown here. Equal entries are not always repeated. “Also recorded” adds a separate entry of the source.
How the values were obtained:
[1] = Phase 1 plasma aficamten pharmacokinetics (SAD, MAD, CYP2D6-PM, food-effect cohorts); assay type: in vivo, human; details: for CL/F: mean ± SD
Procedure: CYP2D6 poor metabolizer cohort.
CYP2D6 genotypes were determined at screening for all study participants; those identified as CYP2D6-PMs were excluded from the SAD and MAD cohorts but were invited to participate in the CYP2D6-PM cohort. The first individual in the CYP2D6-PM cohort was dosed after the SAD 25-mg cohort (FIG. 2). […] Nine participants were randomized (7:2) with a sentinel dosing group consisting of the first 2 participants treated.
Food-effect cohort. […] Participants were randomized in a 1:1 ratio to 1 of 2 sequences: fasted/fed or fed/fasted.
Pharmacokinetic analyses. For all study groups, blood samples for PK assessment were obtained pre-dose, up to 12 times daily on day 1, and then at regular intervals throughout the study. Blood samples were collected according to the following schedule: SAD Cohorts: Day 1: pre-dose and 0.25, 0.5, 1, 1.5, 2, 2.5, 3, 4, 6, 8, 12, 16, 24, 36, 48, 72, 96, and 216 h post dose. […] CYPD6-PM Cohort: Day 1: pre-dose and 0.25, 0.5, 1, 1.5, 2, 2.5, 3, 4, 6, 8, 12, 16, 24, 36, 48, 72, 96, 216, 312, and 552 h post dose. Food-Effect Cohort: Day 1: pre-dose and 0.25, 0.5, 1, 1.5, 2, 2.5, 3, 4, 6, 8, 12, 16, 24, 36, 48, 72, 96, 144, and 216 h post dose. Standard non-compartmental methods were used to calculate PK parameters using Phoenix® WinNonlin® Version 7.0; actual sample collection times were utilized.
For the MAD cohort, the parameters were AUC24 and Cmax on day 1, plus AUC to the […] (AUCtau) and Cmax on day 14 or 17. The statistical linear relationship between the ln-transformed PK parameters and the ln-transformed dose was verified by including the quadratic (ln Dose)^2 and cubic (ln Dose)^3 effects. […] The dose-proportionality analysis was performed using SAS® PROC MIXED.
An analysis of variance (ANOVA) model was conducted separately for each dose level; day was included as the fixed effect. Helmert contrasts were developed such that each time-point was compared with the mean of the subsequent time-points.

[2] = tested on: patients with symptomatic obstructive HCM (oHCM); assay: Phase 2 trial: echocardiography (LVOT-G, LVEF, cardiac remodeling); assay type: in vivo, human; details: for patients achieving resting gradient <30 mmHg and post-Valsalva gradient <50 mmHg at Week 10 (complete hemodynamic response): n=14
Description: Cohort 3 included patients receiving disopyramide.
Since patient characteristics vary substantially in this disease, individualized dose titration to a pharmacodynamics (PD) response (reduction of the LVOT-G to <30 mmHg with preservation of LVEF >50%) was employed to maximize efficacy and safety.
Patients up-titrated to Dose 2 if either of the following conditions were met on echocardiography: (1) resting LVOT-G ≥30 mmHg and the biplane LVEF ≥50%; or (2) resting LVOT-G <30 mmHg, post-Valsalva LVOT-G ≥50 mmHg, and the biplane LVEF ≥50%. Otherwise, the patient remains on Dose 1. If LVEF is <50% at Week 2, the patient was down-titrated to placebo.
Patients were escalated to the next higher dose if either of the following conditions were met on echocardiography: (1) resting LVOT-G ≥30 mmHg and the biplane LVEF ≥50%; or (2) resting LVOT-G <30 mmHg, post-Valsalva LVOT-G ≥50 mmHg, and the biplane LVEF ≥50%. Otherwise, the patient remained on the same dose. If LVEF was <50% at Week 4, the patient was returned to a prior dose level or to placebo if the patient was on Dose 1.
Echocardiograms obtained every 2 weeks and 2 weeks after the last dose were analyzed for several key structural and physiologic metrics and N-terminal prohormone of brain natriuretic peptide (NT-proBNP).
Overall, treatment duration for each patient in the study was 10 weeks with an echocardiogram conducted 2 weeks after the last dose.
Secondary results from the clinical study included data from Cohort 3 (n=13). […] Overall, treatment duration for each patient in the study was 10 weeks with an echocardiogram conducted 2 weeks after the last dose. Efficacy endpoints included resting and provoked LVOT gradients, NYHA class, and NT-proBNP.

[3] = Cohort 3 (with disopyramide), n=13
[4] = baseline to week 10, pooled aficamten

## CCc1nc(-c2ccc3c(c2)CC[C@H]3NC(=O)c2cnn(C)c2)no1 [aficamten, (R)—N-(5-(5-ethyl-1,2,4-oxadiazol-3-yl)-2,3-dihydro-1H-inden-1-yl)-1-methyl-1H-pyrazole-4-carboxamide]
[1]; 10 mg single dose
  impact of food and CYP2D6-PM phenotype on pharmacokinetics: Neither food nor CYP2D6-PM phenotype had a clinically meaningful impact on pharmacokinetics
[1]; 5-mg and 7.5-mg doses once daily
  steady state achieved by the end of day: 12 days
[1]; 10-mg dose once daily
  steady state achieved by the end of day: 10 days
[1]; CYP2D6 Poor Metabolizers, 10 mg single dose
  CL/F: 3.6 ± 1.4 L/h
[1]; SAD cohorts
  maximum time to maximum observed concentration across all participants: 4.0 h
[1]; food-effect cohort, 10 mg
  increase of Cmax when taken with food: approximately 30%
[1]; food-effect cohort, 10 mg, Fasted (n = 4)
  CL/F: 2.8 ± 0.6 L/h
[1]; food-effect cohort, 10 mg, Fed (n = 7)
  CL/F: 3.1 ± 0.9 L/h
[1]; once-daily dosing
  time within which steady state is achieved: ≤ 2 weeks
[1]; single oral dose 3 mg
  CL/F: 4.2 ± 3.1 L/h
[1]; single oral dose 10 mg
  CL/F: 3.0 ± 0.7 L/h
[1]; single oral dose 25 mg
  CL/F: 3.6 ± 0.5 L/h
[1]; single oral dose 40 mg
  CL/F: 3.4 ± 0.6 L/h
[1]; single oral dose 50 mg
  CL/F: 3.8 ± 1.1 L/h
[1]; single oral doses 1 mg to 50 mg
  dose proportionality of plasma concentrations / exposure: increased in a dose-proportional manner; also recorded: linear kinetics
[2]; Cohort 1 (5, 10, 15 mg)
  patients achieving resting gradient <30 mmHg and post-Valsalva gradient <50 mmHg at Week 10 (complete hemodynamic response): 78.6% and 79%
[2]; Cohort 1 (n=14), 53.8 mmHg at baseline
  average resting LVOT-G at 10 weeks: 13.4 mmHg
[2]; Cohort 1 (n=14), 77.4 mmHg at baseline
  average Valsalva LVOT-G at 10 weeks: 38.1 mmHg
[2]; Cohort 1 (n=14), baseline 72.8% (73±6%)
  average ejection fraction at 10 weeks: 67.3% and 67±9%
[2]; Cohort 2 (10, 20, 30 mg)
  patients achieving resting gradient <30 mmHg and post-Valsalva gradient <50 mmHg at Week 10 (complete hemodynamic response): 92.9% and 93%
[2]; Cohort 2 (n=14), 58.2 mmHg at baseline
  average resting LVOT-G at 10 weeks: 15.1 mmHg
[2]; Cohort 2 (n=14), 82.3 mmHg at baseline
  average Valsalva LVOT-G at 10 weeks: 29.8 mmHg
[2]; Cohort 2 (n=14), baseline 75.4% (75±6%)
  average ejection fraction at 10 weeks: 64.1% and 64±8%
[2]; Cohort 3 (Ten of 13)
  patients with complete or partial response in LVOT gradients at end of treatment: 77%
[2]; Cohort 3 (Three patients)
  patients with temporary complete or partial response during the treatment period: 23%
[2]; [3]
  mean (SD) reduction of resting LVOT-G at Week 10: 27 mmHg
  mean reduction of Valsalva LVOT-G at Week 10: 28 mmHg
[2]; Cohort 3 (with disopyramide), baseline 74±7.5%
  mean LVEF at end of 10-week treatment: 69±7.2%
[2]; Cohorts 1 and 2
  dose dependence of reductions in LVOT-G: dose dependent
  onset of reductions in LVOT-G: within two weeks of initiating treatment
[2]; Cohorts 1 and 2, dose vs EF over time
  mean reduction in EF per mg of aficamten: −0.6 % per mg
[2]; [4]
  change in e′: 0.5 cm/s
  change in lateral E/e′: −2.0 (±1.1)
[2]; week 10
  LVMI mean difference, aficamten vs placebo: 8.1 g/m^2

Reference: US20240115554A1, “METHODS FOR TREATING OBSTRUCTIVE HYPERTROPHIC CARDIOMYOPATHY” (Cytokinetics, Incorporated, priority 2022, published 2024)
